Measurements as given in patent US6689808B2, “Substituted phthalides, a process for their preparations and pharmaceutical compositions containing them” (Les Laboratoires Servier, priority 2000, dated 2004).

| SMILES | melting point [°C] |
| --- | --- |
| CCCCCCCCC1OC(=O)c2cc(N)ccc21 (stereo not drawn) [Example 6, 6-Amino-3-octyl-phthalide] | 124 to 125 |
| CCCCCCC1OC(=O)c2cc(NC(C)=O)ccc21 (stereo not drawn) [Example 8, 6-Acetamido-3-hexyl-phthalide] | 135 to 137 |
| CCCCCCCCC1OC(=O)c2cc(NC(C)=O)ccc21 (stereo not drawn) [Example 9, 6-Acetamido-3-octyl-phthalide] | 133 to 134 |
| CCCCC1OC(=O)c2cc(NC(N)=S)ccc21 (stereo not drawn) [Example 21, 3-Butyl-6-thioureido-phthalide] | 183 to 185 |

Next, values leading:

| melting point [°C] | SMILES |
| --- | --- |
| 98.5 to 100 | CCC1(CC)OC(=O)c2cc([N+](=O)[O-])ccc21 [Example 24, 3,3-Diethyl-6-nitro-phthalide] |
| 153 to 154 | CCC1(CC)OC(=O)c2cc(N)ccc21 [Example 25, 6-Amino-3,3-diethyl-phthalide] |
